Laboratory results published in PubChem BioAssay AID2060912 (Molecular Pharmacology Branch, DTP, NCI, 2025).
Where “and” joins values, the source holds several entries; their conditions need not be identical. Equal entries are not always repeated.

System: HUVEC/MSC spheroids viability
Assay: Human HUVEC/MSC cell line growth inhibition [KRAS2];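 for viability, T/C: percent of DMSO vehicle control luminescence so 100% = untreated viability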
Conditions: for viability, T/C: stronger effect = lower value
Method in brief: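 Endothelial cells (HUVEC) plus mesenchymal stem cells, cultured at 37 °C/5% CO2 and assembled into spheroids without cancer cells, served as a stromal control. Drug pairs and single agents spanned half-log ranges anchored to clinical Cmax.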

[1] = curve of first compound, second compound 0.0316 µM
[2] = curve of first compound, second compound 0.1 µM
[3] = curve of first compound, second compound 0.316 µM
[4] = curve of first compound, second compound 1 µM
[5] = curve of first compound, second compound 3.16 µM
[6] = curve of first compound, second compound 10 µM
[7] = second compound 0.0316 µM, first compound 0.0316 µM
[8] = second compound 0.0316 µM, first compound 0.1 µM
[9] = second compound 0.1 µM, first compound 0.0316 µM
[10] = second compound 0.1 µM, first compound 0.1 µM
[11] = second compound 0.316 µM, first compound 0.0316 µM
[12] = second compound 0.316 µM, first compound 0.1 µM
[13] = second compound 1 µM, first compound 0.0316 µM
[14] = second compound 1 µM, first compound 0.1 µM
[15] = second compound 3.16 µM, first compound 0.0316 µM
[16] = second compound 3.16 µM, first compound 0.1 µM
[17] = second compound 10 µM, first compound 0.0316 µM
[18] = second compound 10 µM, first compound 0.1 µM

Cn1nccc1Nc1nccc(-c2cc3c(s2)C(C)(C)N(CCN2CCOCC2)C3=O)n1 + C=CC(=O)N1CCN(c2nc(=O)n(-c3c(C)ccnc3C(C)C)c3nc(-c4c(O)cccc4F)c(F)cc23)C(C)C1
IC50 [1]: 2980 nM | IC50 [2]: 2650 nM | IC50 [3]: 2700 nM | IC50 [4]: 3090 nM | IC50 [5]: 2660 nM | IC50 [6]: 2560 nM | viability, T/C [7]: 86.7% | viability, T/C [8]: 102% | viability, T/C (second compound 0.0316 µM, first compound 0.316 µM): 112% | viability, T/C (second compound 0.0316 µM, first compound 1 µM): 93.3% | viability, T/C (second compound 0.0316 µM, first compound 3.16 µM): 47.7% | viability, T/C (second compound 0.0316 µM, first compound 10 µM): 5.76% | viability, T/C [9]: 105% | viability, T/C [10]: 108% | viability, T/C (second compound 0.1 µM, first compound 0.316 µM): 105% | viability, T/C (second compound 0.1 µM, first compound 1 µM): 93.4% | viability, T/C (second compound 0.1 µM, first compound 3.16 µM): 42.1% | viability, T/C (second compound 0.1 µM, first compound 10 µM): 9.02% | viability, T/C [11]: 99.2% | viability, T/C [12]: 114% | viability, T/C (second compound 0.316 µM, first compound 0.316 µM): 98.6% | viability, T/C (second compound 0.316 µM, first compound 1 µM): 99.6% | viability, T/C (second compound 0.316 µM, first compound 3.16 µM): 42.2% | viability, T/C (second compound 0.316 µM, first compound 10 µM): 5.77% | viability, T/C [13]: 99.8% | viability, T/C [14]: 118% | viability, T/C (second compound 1 µM, first compound 0.316 µM): 129% | viability, T/C (second compound 1 µM, first compound 1 µM): 90.2% | viability, T/C (second compound 1 µM, first compound 3.16 µM): 51.1% | viability, T/C (second compound 1 µM, first compound 10 µM): 4.48% | viability, T/C [15]: 115% | viability, T/C [16]: 129% | viability, T/C (second compound 3.16 µM, first compound 0.316 µM): 112% | viability, T/C (second compound 3.16 µM, first compound 1 µM): 84% | viability, T/C (second compound 3.16 µM, first compound 3.16 µM): 45.3% | viability, T/C (second compound 3.16 µM, first compound 10 µM): 4.12% | viability, T/C [17]: 150% | viability, T/C [18]: 128% | viability, T/C (second compound 10 µM, first compound 0.316 µM): 135% | viability, T/C (second compound 10 µM, first compound 1 µM): 106% | viability, T/C (second compound 10 µM, first compound 3.16 µM): 37% | viability, T/C (second compound 10 µM, first compound 10 µM): 3.03%

Cn1ncnc1[C@H]1c2n[nH]c(=O)c3cc(F)cc(c23)N[C@@H]1c1ccc(F)cc1 + C=CC(=O)N1CCN(c2nc(=O)n(-c3c(C)ccnc3C(C)C)c3nc(-c4c(O)cccc4F)c(F)cc23)C(C)C1
IC50 [1]: > 100 nM | IC50 [2]: > 100 nM | IC50 [3]: > 100 nM | IC50 [4]: > 100 nM | IC50 [5]: > 100 nM | IC50 [6]: > 100 nM | viability, T/C (second compound 0.0316 µM, first compound 0.000316 µM): 101% | viability, T/C (second compound 0.0316 µM, first compound 0.001 µM): 100% | viability, T/C (second compound 0.0316 µM, first compound 0.00316 µM): 74.3% | viability, T/C (second compound 0.0316 µM, first compound 0.01 µM): 94.3% | viability, T/C [7]: 83.1% | viability, T/C [8]: 105% | viability, T/C (second compound 0.1 µM, first compound 0.000316 µM): 92.6% | viability, T/C (second compound 0.1 µM, first compound 0.001 µM): 117% | viability, T/C (second compound 0.1 µM, first compound 0.00316 µM): 101% | viability, T/C (second compound 0.1 µM, first compound 0.01 µM): 79.5% | viability, T/C [9]: 96.2% | viability, T/C [10]: 83.5% | viability, T/C (second compound 0.316 µM, first compound 0.000316 µM): 110% | viability, T/C (second compound 0.316 µM, first compound 0.001 µM): 110% | viability, T/C (second compound 0.316 µM, first compound 0.00316 µM): 97.2% | viability, T/C (second compound 0.316 µM, first compound 0.01 µM): 97.1% | viability, T/C [11]: 99.2% | viability, T/C [12]: 114% | viability, T/C (second compound 1 µM, first compound 0.000316 µM): 114% | viability, T/C (second compound 1 µM, first compound 0.001 µM): 106% | viability, T/C (second compound 1 µM, first compound 0.00316 µM): 95.4% | viability, T/C (second compound 1 µM, first compound 0.01 µM): 106% | viability, T/C [13]: 106% | viability, T/C [14]: 86% | viability, T/C (second compound 3.16 µM, first compound 0.000316 µM): 110% | viability, T/C (second compound 3.16 µM, first compound 0.001 µM): 141% | viability, T/C (second compound 3.16 µM, first compound 0.00316 µM): 101% | viability, T/C (second compound 3.16 µM, first compound 0.01 µM): 140% | viability, T/C [15]: 130% | viability, T/C [16]: 93.5% | viability, T/C (second compound 10 µM, first compound 0.000316 µM): 129% | viability, T/C (second compound 10 µM, first compound 0.001 µM): 127% | viability, T/C (second compound 10 µM, first compound 0.00316 µM): 112% | viability, T/C (second compound 10 µM, first compound 0.01 µM): 103% | viability, T/C [17]: 105% | viability, T/C [18]: 123%

CN(C)C/C=C/C(=O)Nc1cc2c(Nc3ccc(F)c(Cl)c3)ncnc2cc1O[C@H]1CCOC1
viability, T/C (compound 0.000316 µM): 99.9% [middle of 5 runs] | viability, T/C (compound 0.001 µM): 91% [middle of 5 runs] | viability, T/C (compound 0.00316 µM): 90.5% [middle of 5 runs] | viability, T/C (compound 0.0316 µM): 85.3% [middle of 5 runs] | IC50 (curve of compound): > 100 nM

CC(C)NCC(C(=O)N1CCN(c2ncnc3c2C(C)CC3O)CC1)c1ccc(Cl)cc1 (stereo not given)
viability, T/C (compound 0.316 µM): 83.5% [middle of 5 runs] | viability, T/C (compound 1 µM): 71.7% [middle of 5 runs] | viability, T/C (compound 10 µM): 51.3% [middle of 5 runs] | IC50 (curve of compound): > 10000 nM and 2610 nM and 9300 nM

COc1cc(OC)cc(N(CCNC(C)C)c2ccc3ncc(-c4cnn(C)c4)nc3c2)c1
viability, T/C (compound 0.0316 µM): 60.9% [middle of 5 runs] | viability, T/C (compound 0.1 µM): 45.4% [middle of 5 runs] | viability, T/C (compound 0.316 µM): 38.2% [middle of 5 runs] | viability, T/C (compound 1 µM): 38.3% [middle of 5 runs] | viability, T/C (compound 3.16 µM): 41.8% [middle of 5 runs] | viability, T/C (compound 10 µM): 34.8% [middle of 5 runs] | IC50 (curve of compound): 66.1 nM [middle of 5 runs]
